Assay results taken from patent publication US5416111A, “Cyano-containing n-phenyl-amino-terminated non-peptidyl α-succinamidoacyl aminodiols as anti-hypertensive agents” (G.D. Searle & Co., priority 1993, dated 1995).

Columns and labels:
hog renin = hog renin inhibition assay in vitro (angiotensin I produced, radioimmunoassay); type: biochemical; settings: 20 micromolar synthetic tetradecapeptide substrate, pH 7.4, one hour at 37° C.
Experimental: (§1) Compounds of Formula I were evaluated as inhibitors of human renin in an in vitro assay, as follows: This human renin inhibition test has been previously described in detail [Papaioannou, et al., Clinical and Experimental Hypertension, A7(9), 1243-1257 (1985)]. Human renin was obtained from the National Institute for Biological Standards, London. In a total volume of 0.25 mL 100 mM Tris-acetate buffer at pH 7.4, 25×10-6 Goldblatt units of renin, 0.05 mL of plasma from human volunteers taking oral contraceptives, 6.0 mM sodium EDTA, 2.4 mM phenylmethyl sulfonyl fluoride, 1.5 mM 8-hydroxyquinoline, 0.4 mg/mL BSA, and 0.024 mg/mL neomycin sulfate were incubated for two hours at 37° C. in the presence or absence of renin inhibitors. The produced angiotensin I was determined by radioimmunoassay (New England Nuclear kit). Compounds to be assayed were solubilized in either ethyl alcohol or DMSO and diluted with 100 mM Tris-acetate buffer at pH 7.4 to the appropriate concentration. The final concentration of organic solvent in the reaction mixture was less than 1%. Control incubations at 37° C. were used to correct for effects of organic solvent on renin activity.
The hog renin inhibition assay was performed in a manner similar to the human renin assay, with the following modifications. […] The amount of angiotensin I produced was determined as for the human renin inhibition assay.

human renin = target: T1, human renin (Homo sapiens, UniProt P00797); assay: human renin inhibition assay in vitro (angiotensin I produced, radioimmunoassay); type: biochemical; settings: human plasma, pH 7.4, two hours at 37° C.
T1 construct: purchased National Institute for Biological Standards, London
T1 sequence (P00797 67-406): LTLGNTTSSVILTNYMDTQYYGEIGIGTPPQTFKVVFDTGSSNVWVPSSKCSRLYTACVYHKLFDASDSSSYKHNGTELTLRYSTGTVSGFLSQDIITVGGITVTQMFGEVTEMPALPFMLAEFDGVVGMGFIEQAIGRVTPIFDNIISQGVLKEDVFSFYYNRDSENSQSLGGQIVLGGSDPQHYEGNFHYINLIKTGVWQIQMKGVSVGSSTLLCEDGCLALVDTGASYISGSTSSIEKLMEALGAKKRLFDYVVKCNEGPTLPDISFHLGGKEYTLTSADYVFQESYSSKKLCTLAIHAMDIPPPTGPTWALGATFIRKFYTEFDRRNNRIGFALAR
Experimental: as §1

CC(C)C[C@H](NC(=O)C(CC(=O)N1CCOCC1)Cc1cccc2ccccc12)C(=O)N[C@@H](CC1CCCCC1)[C@@H](O)CO (stereo partly drawn) [Example 9, 3-(N-morpholinocarbonyl)-2-(R,S)-(1-naphthylmethyl)-propionyl-L-leucinamide of (2S ,3R)-2-amino-1-cyclohexyl-3,4-dihydroxybutane]
IC50 (hog renin): 2800 nM | IC50 (human renin): 740 nM
